# Measurements published in US7473694B2, “Pyrazolopyrimidine derivatives or pharmaceutically acceptable salts thereof” (Teijin Pharma Limited, priority 2005, dated 2009).
# Biological target: recombinant human MAPKAP-K2 (Homo sapiens, UniProt P49137)
# Assay: Inhibition of MAPKAP-K2 enzyme activity (33P-ATP peptide substrate phosphorylation)
# Type: biochemical
# Conditions: recombinant human MAPKAP-K2 10 mU, room temperature 30 min, peptide substrate Lys-Lys-Leu-Asn-Arg-Thr-Leu-Ser-Val-Ala; read-out: Activity strength (IC50 against MAPKAP-K2)
# Protocol: General Measurement Method for Determining Inhibition of MAPKAP-K2 Enzyme Activity
# (Preparation of Solutions of Compounds)
# Each compound was dissolved to DMSO to prepare a solution with a concentration of 20 mmol/L and this solution was stored at −20° C. This stock solution was diluted with DMSO successively to prepare solutions with 200-fold concentrations of a necessary range. These solutions were further diluted with water at a ratio of 1:20 to prepare solutions with 10-fold concentrations of a necessary range. Each of these solutions (5 μL) was used for each reaction in 50 μL-scale. Through the dilution series of all compounds, the final DMSO concentration was kept at 0.5%. Conventional tests for the compounds were carried out at a final concentration ranging from 100 μmol/L to 0.03 μmol/L, but in some cases, tests were carried out at lower concentrations, depending on activity.
# (Measurements of MAPKAP-K2 Enzyme Activity)
# To a DMSO solution (5 μL) containing a test compound at 5%, a solution (25 μL) containing a peptide substrate [peptide substrate […], ATP 20 μmol/L, Tris buffer 60 mmol/L (pH 7.5), EGTA 0.2 mmol/L, β-mercaptoethanol 0.2%, magnesium acetate 20 mmol/L, [γ-33P]ATP 0.1 μCi (specific radioactivity ca. 110 TBq/mmol)] was added. The reaction was initiated by further adding a solution (20 μL) containing MAPKAP-K2 enzyme [recombinant human MAPKAP-K2 10 mU, Tris buffer 50 mmol/L (pH 7.5), EGTA 0.1 mmol/L, β-mercaptoethanol 0.1%, BSA 0.1%]. After the reaction was carried out at room temperature for 30 min, 200 mmol/L phosphoric acid (50 μL) was added to quench the reaction, and 90 μL of the reaction mixture was adsorbed on a multiscreen PH plate (Millipore). The plate was washed with 100 mmol/L phosphoric acid. After the plate was dried, 30 μL of MicroScint™-O (Perkin-Elmer) was added here, and the radioactivity (cpm) was measured on a scintillation counter to determine the inhibitory activity. The peptide substrate was Lys-Lys-Leu-Asn-Arg-Thr-Leu-Ser-Val-Ala.
# (Note) % Reference=(X−B)/(Tot−B)×100 % Inhibition=100%−% Reference • X=count per minute of the well with a test compound • B=count per minute of the well without the enzyme • Tot=count per minute of the well with only DMSO solvent and without a test compound (Calculation of MAPKAP-K2 Inhibitory Activity) • IC50 value=a concentration of compound at which 50% inhibition is observed • The efficacy of each compound in Tables A to G against MAPKAP-K2 is listed in the following Table J.
# recombinant human MAPKAP-K2, sequence (P49137 whole entry): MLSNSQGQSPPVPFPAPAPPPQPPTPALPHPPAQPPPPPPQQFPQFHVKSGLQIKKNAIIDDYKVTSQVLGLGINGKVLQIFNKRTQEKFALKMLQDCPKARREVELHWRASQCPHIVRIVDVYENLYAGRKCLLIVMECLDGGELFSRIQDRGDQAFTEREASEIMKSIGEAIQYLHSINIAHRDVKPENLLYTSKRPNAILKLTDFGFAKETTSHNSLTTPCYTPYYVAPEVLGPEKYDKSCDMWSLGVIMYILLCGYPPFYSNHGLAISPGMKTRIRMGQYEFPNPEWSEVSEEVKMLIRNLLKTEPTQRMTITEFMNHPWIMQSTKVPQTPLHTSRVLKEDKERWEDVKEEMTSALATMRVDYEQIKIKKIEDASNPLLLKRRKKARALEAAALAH
row,IC50,SMILES
1,< 10 µM,CCOc1ccc(Nc2c3c(nc4ccnn24)N([C@H]2CCCNC2)CCC3)cc1 [B-001]
2,< 10 µM,"CCOc1ccc(Nc2c3c(nc4ccnn24)N([C@H]2CC[C@H](N)CC2)CCC3)cc1 [B-002, [5-(4-aminocyclohexyl)-5,6,7,8-tetrahydro-1,4,5,9a-tetraazacyclopenta[b]naphthalen-9-yl](4-ethoxyphenyl)amine]"
3,10 to 50 µM,CCOc1ccc(Nc2c3c(nc4ccnn24)N([C@@H]2CCCC[C@@H]2N)CCC3)cc1 [B-003]
4,50 to 100 µM,CCOc1ccc(Nc2c3c(nc4ccnn24)N(CCN(C)C)CCC3)cc1 [B-007]
5,50 to 100 µM,CCOc1ccc(Nc2c3c(nc4ccnn24)N(C2CCCC(N)C2)CCC3)cc1 (stereo not shown) [B-013]
6,< 10 µM,CCOc1ccc(Nc2c3c(nc4ccnn24)N(C2CCCNC2)CCC3)cc1 (stereo not shown) [B-014]
7,10 to 50 µM,CCOc1ccc(Nc2c3c(nc4ccnn24)N(CCCN)CCC3)cc1 [B-015]
8,10 to 50 µM,CCOc1ccc(Nc2c3c(nc4ccnn24)N(C2CCN(Cc4ccccc4)C2)CCC3)cc1 (stereo not shown) [B-016]
9,< 10 µM,CCOc1ccc(Nc2c3c(nc4ccnn24)N(C2CCNCC2)CCC3)cc1 [B-017]
10,50 to 100 µM,CCOc1ccc(Nc2c3c(nc4ccnn24)N(Cc2cccnc2)CCC3)cc1 [B-018]
11,< 10 µM,CCOc1ccc(Nc2c3c(nc4ccnn24)N(C2CCNC2)CCC3)cc1 (stereo not shown) [B-021]
12,10 to 50 µM,CCOc1ccc(Nc2c3c(nc4ccnn24)N(C2CCN(CC)C2)CCC3)cc1 (stereo not shown) [B-022]
13,< 10 µM,"CCOc1ccc(Nc2c3c(nc4ccnn24)N([C@H]2CCCNC2)CCCC3)cc1 [C-001, (S)-(4-ethoxyphenyl)(5-piperidin-3-yl-6,7,8,9-tetrahydro-5H-1,4,5,10a-tetraazacyclohepta[f]inden-10-yl)amine]"
14,10 to 50 µM,CCOc1ccc(Nc2c3c(nc4ccnn24)N([C@H]2CCCNC2)C(=O)C3)cc1 [D-001]
15,50 to 100 µM,CCOc1ccc(Nc2c3c(nc4ccnn24)N(C[C@H]2CCCNC2)C(=O)C3)cc1 [D-002]
16,50 to 100 µM,CCOc1ccc(Nc2c3c(nc4ccnn24)N(CCN)C(=O)C3)cc1 [D-003]
17,10 to 50 µM,CCOc1ccc(Nc2c3c(nc4ccnn24)N([C@H]2CC[C@H](N)CC2)C(=O)C3)cc1 [D-006]
18,< 10 µM,"CCOc1ccc(Nc2c3ccn([C@H]4CCCNC4)c3nc3ccnn23)cc1 [F-001, (S)-(4-ethoxyphenyl)(5-piperidin-3-yl-5H-14,5,8a-tetraaza-s-indacen-8-yl)amine]"
19,10 to 50 µM,CCOc1ccc(Nc2c3cc(CO)n([C@H]4CCCNC4)c3nc3ccnn23)cc1 [F-002]
20,< 10 µM,"CCOc1ccc(Nc2c3c(nc4ccnn24)N([C@H]2CCCNC2)CC=CC3)cc1 [G-001, (S)-(4-ethoxyphenyl)(5-piperidin-3-yl-6,9-dihydro-5H-1,4,5,10a-tetraazacyclohepta[f]inden-10-yl)amine]"

# Second part, the compound before the results:
row,SMILES,IC50
1,CCOc1ccc(Nc2c3c(nc4ccnn24)N([C@H]2CC[C@H](N)CC2)CC3)cc1 [A-002],< 10 µM
2,CCOc1ccc(Nc2c3c(nc4ccnn24)N(C2CCCC(N)C2)CC3)cc1 (stereo not shown) [A-003],10 to 50 µM
3,CCOc1ccc(Nc2c3c(nc4ccnn24)N([C@H]2CCCC[C@@H]2N)CC3)cc1 [A-004],50 to 100 µM
4,CCOc1ccc(Nc2c3c(nc4ccnn24)N(CCN)CC3)cc1 [A-005],< 10 µM
5,CCOc1ccc(Nc2c3c(nc4ccnn24)N(CCCN)CC3)cc1 [A-006],< 10 µM
6,CCOc1ccc(Nc2c3c(nc4ccnn24)N(CC(C)(C)CN)CC3)cc1 [A-007],50 to 100 µM
7,"CCOc1ccc(Nc2c3c(nc4ccnn24)N([C@H]2CCCNC2)CC3)cc1 [A-008, (S)-(4-ethoxyphenyl)(5-piperidin-3-yl-6,7-dihydro-5H-1,4,5,8a-tetraaza-s-indacen-8-yl)amine]",< 10 µM
8,CCOc1ccc(Nc2c3c(nc4ccnn24)N(C2CCNCC2)CC3)cc1 [A-009],< 10 µM
9,CCOc1ccc(Nc2c3c(nc4ccnn24)N(C2CCN(Cc4ccccc4)C2)CC3)cc1 (stereo not shown) [A-010],10 to 50 µM
10,CCOc1ccc(Nc2c3c(nc4ccnn24)N(C2CCN(CC)C2)CC3)cc1 (stereo not shown) [A-012],10 to 50 µM
11,CCOc1ccc(Nc2c3c(nc4ccnn24)N(C2CCNC2)CC3)cc1 (stereo not shown) [A-013],< 10 µM
12,CCOc1ccc(Nc2c3c(nc4ccnn24)N(CC2CCCNC2)CC3)cc1 (stereo not shown) [A-014],50 to 100 µM
13,"CCOc1ccc(Nc2c3c(nc4c(F)cnn24)N([C@H]2CCCNC2)CC3)cc1 [A-018, (S)-(4-Ethoxyphenyl)(3-fluoro-5-piperidin-3-yl-6,7-dihydro-5H-1,4,5,8a-tetraaza-s-indacen-8-yl)amine]",< 10 µM
14,"CCOc1ccc(Nc2c3c(nc4c(F)c(F)nn24)N([C@H]2CCCNC2)CC3)cc1 [A-019, (S)-(2,3-Difluoro-5-piperidin-3-yl-6,7-dihydro-5H-1,4,5,8a-tetraaza-s-indacen-8-yl)(4-ethoxyphenyl)amine]",10 to 50 µM
15,"CCOc1ccc(Nc2c3c(nc4ccnn24)N(O)CC3)cc1 [A-020, 8-(4-ethoxyphenylamino)-6,7-dihydro-1,4,5,8a-tetraaza-s-indacen-5-ol]",< 10 µM
16,"Cc1nc2ccc(Nc3c4c(nc5ccnn35)N([C@H]3CCCNC3)CC4)cc2s1 [A-022, (S)-(2-methylbenzothiazol-6-yl)(5-piperidin-3-yl-6,7-dihydro-5H-1,4,5,8a-tetraaza-s-indacen-8-yl)amine]",< 10 µM
17,"COCCOc1ccc(Nc2c3c(nc4ccnn24)N([C@H]2CCCNC2)CC3)cc1 [A-023, (S)-[4-(2-methoxyethoxy)phenyl](5-piperidin-3-yl-6,7-dihydro-5H-1,4,5,8a-tetraaza-s-indacen-8-yl)amine]",< 10 µM
18,"CCOc1ccc(Nc2c3c(nc4ccnn24)N([C@H]2CCCNC2)C(CO)C3)cc1 (stereo partly drawn) [A-024, (S)-{8-(4-ethoxyphenylamino)-5-piperidin-3-yl-6,7-dihydro-5H-1,4,5,8a-tetraaza-s-indacen-6-yl]methanol]",< 10 µM
19,c1ccc(CNc2c3c(nc4ccnn24)N([C@H]2CCCNC2)CC3)cc1 [A-025],< 10 µM
20,CC(C)(C)CNc1c2c(nc3ccnn13)N([C@H]1CCCNC1)CC2 [A-026],< 10 µM
21,c1cc2nc3c(c(NC4CCCC4)n2n1)CCN3[C@H]1CCCNC1 [A-027],< 10 µM
22,c1ccc(Nc2c3c(nc4ccnn24)N([C@H]2CCCNC2)CC3)cc1 [A-032],< 10 µM
23,c1cc2nc3c(c(Nc4ccc5cn[nH]c5c4)n2n1)CCN3[C@H]1CCCNC1 [A-058],< 10 µM
24,FC(F)(F)c1nc2cc(Nc3c4c(nc5ccnn35)N([C@H]3CCCNC3)CC4)ccc2[nH]1 [A-091],< 10 µM
25,"Nc1c2c(nc3ccnn13)N([C@H]1CCCNC1)CC2 [A-092, (S)-5-piperidin-3-yl-6,7-dihydro-5H-1,4,5,8a-tetraaza-s-indacen-8-ylamine]",< 10 µM
26,"c1coc(Nc2c3c(nc4ccnn24)N([C@H]2CCCNC2)CC3)c1 [A-095, (S)-furan-2-yl-(5-piperidin-3-yl-6,7-dihydro-5H-1,4,5,8a-tetraaza-s-indacen-8-yl)amine]",< 10 µM
27,CNc1c2c(nc3ccnn13)N([C@H]1CCCNC1)CC2 [A-096],< 10 µM
28,COC(=O)c1ccc(Nc2c3c(nc4ccnn24)N(C2CCCNC2)CC3)cc1 (stereo not shown) [A-099],< 10 µM
29,c1cc2nc3c(c(Nc4ccc5sccc5c4)n2n1)CCN3[C@H]1CCCNC1 [A-100],< 10 µM
